Experimental data as given in patent US10138236B2, “Factor xia-inhibiting pyridobenzazepine and pyridobenzazocine derivatives” (BAYER PHARMA AKTIENGESELLSCHAFT, priority 2014, dated 2018).

Experiments:
human plasma kallikrein = human plasma kallikrein (Homo sapiens (Human), UniProt P03952); experiment: Determination of the plasma kallikrein activity; type: biochemical; conditions: plasma kallikrein from Kordia, substrate H-Pro-Phe-Arg-AMC, fluorescence
Procedure: a.5) Determination of the Plasma Kallikrein Activity
(§1) To determine the plasma kallikrein inhibition of the substances according to the invention, a biochemical test system is used which utilizes the reaction of a peptidic plasma kallikrein substrate to determine the enzymatic activity of human plasma kallikrein. Here, plasma kallikrein cleaves from the peptic plasma kallikrein substrate the C-terminal aminomethylcoumarin (AMC), the fluorescence of which is measured. The determinations are carried out in microtitre plates.
1 μl of the diluted substance solutions is placed into each of the wells of white microtitre plates from Greiner (384 wells). 20 μl of assay buffer (50 mM Tris/HCl pH 7.4; 100 mM sodium chloride solution; 5 mM of calcium chloride solution; 0.1% of bovine serum albumin) and 20 μl of plasma kallikrein from Kordia (0.6 nM in assay buffer) are then added successively. After 15 min of incubation, the enzyme reaction is started by addition of 20 μl of the substrate H-Pro-Phe-Arg-AMC dissolved in assay buffer (10 μM in assay buffer) from Bachem, the mixture is incubated at room temperature (22° C.) for 30 min and fluorescence is then measured (excitation: 360 nm, emission: 460 nm). The measured emissions of the test batches with test substance are compared to those of control batches without test substance (only dimethyl sulphoxide instead of test substance in dimethyl sulphoxide), and IC50 values are calculated from the concentration/activity relationships.

human factor XIa = human factor XIa (Homo sapiens (Human), UniProt P03951); experiment: Measurement of FXIa inhibition; type: biochemical; conditions: factor XIa from Kordia, substrate Boc-Glu(OBzl)-Ala-Arg-AMC, fluorescence
Sequence of human factor XIa (P03951 388-625): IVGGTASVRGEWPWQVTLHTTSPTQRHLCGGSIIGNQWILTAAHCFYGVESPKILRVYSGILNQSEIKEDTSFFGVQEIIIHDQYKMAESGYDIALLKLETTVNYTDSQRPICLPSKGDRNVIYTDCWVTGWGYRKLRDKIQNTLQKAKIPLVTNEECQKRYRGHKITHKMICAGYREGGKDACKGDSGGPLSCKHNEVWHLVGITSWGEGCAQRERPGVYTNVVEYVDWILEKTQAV
Sequence of human factor XIa (P03951 19-387 partner): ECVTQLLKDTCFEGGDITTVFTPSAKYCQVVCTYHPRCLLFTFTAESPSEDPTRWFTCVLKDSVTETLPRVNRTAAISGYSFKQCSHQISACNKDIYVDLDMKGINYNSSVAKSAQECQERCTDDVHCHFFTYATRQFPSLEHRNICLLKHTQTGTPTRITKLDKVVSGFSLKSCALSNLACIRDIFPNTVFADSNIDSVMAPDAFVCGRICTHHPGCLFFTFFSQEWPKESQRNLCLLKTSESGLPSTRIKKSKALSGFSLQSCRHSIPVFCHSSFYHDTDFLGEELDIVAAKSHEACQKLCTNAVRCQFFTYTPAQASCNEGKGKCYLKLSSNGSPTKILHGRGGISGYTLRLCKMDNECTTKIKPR
Procedure: a.1) Measurement of FXIa Inhibition
as §1, with “The factor XIa” for “To determine the plasma kallikrein”, “invention is determined using” for “invention,”, “system” for “system is used”, “factor XIa” for “plasma kallikrein”, “factor XIa.” for “plasma kallikrein.”
1 μl of the diluted substance solutions is placed into each of the wells of white microtitre plates from Greiner (384 wells). […] After 15 min of incubation, the enzyme reaction is started by addition of 20 μl of the factor XIa substrate Boc-Glu(OBzl)-Ala-Arg-AMC dissolved in assay buffer (10 μM in assay buffer) from Bachem, the mixture is incubated at room temperature (22° C.) for 30 min and fluorescence is then measured (excitation: 360 nm, emission: 460 nm). The measured emissions of the test batches with test substance are compared to those of control batches without test substance (only dimethyl sulphoxide instead of test substance in dimethyl sulphoxide), and IC50 values are calculated from the concentration/activity relationships.

Sequence of human plasma kallikrein (P03952 391-638): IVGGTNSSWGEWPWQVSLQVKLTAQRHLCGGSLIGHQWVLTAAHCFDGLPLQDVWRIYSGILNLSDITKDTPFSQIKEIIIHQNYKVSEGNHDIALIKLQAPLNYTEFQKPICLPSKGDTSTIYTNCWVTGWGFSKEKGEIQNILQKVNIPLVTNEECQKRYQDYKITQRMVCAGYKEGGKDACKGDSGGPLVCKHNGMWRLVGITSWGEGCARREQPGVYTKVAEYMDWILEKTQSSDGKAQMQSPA
Sequence of human plasma kallikrein (P03952 20-390 partner): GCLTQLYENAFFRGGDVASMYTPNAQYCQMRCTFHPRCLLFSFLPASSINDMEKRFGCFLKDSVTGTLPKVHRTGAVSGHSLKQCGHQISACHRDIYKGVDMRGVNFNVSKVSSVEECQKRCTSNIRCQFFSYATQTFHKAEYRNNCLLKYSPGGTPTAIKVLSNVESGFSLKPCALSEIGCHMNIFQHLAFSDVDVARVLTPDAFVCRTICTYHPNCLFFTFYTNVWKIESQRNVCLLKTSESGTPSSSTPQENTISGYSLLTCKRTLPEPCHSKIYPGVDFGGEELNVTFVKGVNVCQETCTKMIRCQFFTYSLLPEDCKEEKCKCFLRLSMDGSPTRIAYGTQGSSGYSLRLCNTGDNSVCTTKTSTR

| Structure (SMILES) | IC50 (human plasma kallikrein) | IC50 (human factor XIa) |
| --- | --- | --- |
| COCCC(C(=O)Nc1ccc(C(=O)O)s1)n1cc2c(cc1=O)-c1cc(Cl)ccc1CC1(CC1)NC2=O (stereo not shown) [Example 22, 5-{[2-(11′-Chloro-2′,5′-dioxo-2′,5′,6′,8′-tetrahydro-3′H-spiro[cyclopropane-1,7′-pyrido[3,4-e][3]benzazocine]-3′-yl)-4-methoxybutanoyl]amino}thiophene-2-carboxylic acid] | 340 nM | 4 nM |
| COCCC(C(=O)Nc1cc(C(=O)O)cs1)n1cc2c(cc1=O)-c1cc(Cl)ccc1CC1(CC1)NC2=O (stereo not shown) [Example 23, 5-{[2-(11′-Chloro-2′,5′-dioxo-2′,5′,6′,8′-tetrahydro-3′H-spiro[cyclopropane-1,7′-pyrido[3,4-e][3]benzazocine]-3′-yl)-4-methoxybutanoyl]amino}thiophene-3-carboxylic acid] | 3900 nM | 100 nM |
| COCCC(C(=O)Nc1csc(C(=O)O)c1)n1cc2c(cc1=O)-c1cc(Cl)ccc1CC1(CC1)NC2=O (stereo not shown) [Example 24, 4-{[2-(11′-Chloro-2′,5′-dioxo-2′,5′,6′,8′-tetrahydro-3′H-spiro[cyclopropane-1,7′-pyrido[3,4-e][3]benzazocine]-3′-yl)-4-methoxybutanoyl]amino}thiophene-2-carboxylic acid] | 800 nM | 35 nM |
| CO[C@H]1CC[C@H](CC(C(=O)Nc2ccc(C(=O)O)cc2)n2cc3c(cc2=O)-c2cc(Cl)ccc2CC2(CC2)NC3=O)CC1 (stereo partly drawn) [Example 25, 4-{[2-(11′-Chloro-2′,5′-dioxo-2′,5′,6′,8′-tetrahydro-3′H-spiro[cyclopropane-1,7′-pyrido[3,4-e][3]benzazocine]-3′-yl)-3-(trans-4-methoxycyclohexyl)propanoyl]amino}benzoic acid] | 370 nM | 2.5 nM |
| CO[C@H]1CC[C@H](CC(C(=O)Nc2ccc(C(N)=O)c(F)c2)n2cc3c(cc2=O)-c2cc(Cl)ccc2CC2(CC2)NC3=O)CC1 (stereo partly drawn) [Example 26, 4-{[2-(11′-Chloro-2′,5′-dioxo-2′,5′,6′,8′-tetrahydro-3′H-spiro[cyclopropane-1,7′-pyrido[3,4-e][3]benzazocine]-3′-yl)-3-(trans-4-methoxycyclohexyl)propanoyl]amino}-2-fluorobenzamide] | 740 nM | 34 nM |
| COCCC(C(=O)Nc1ccc2nn(C)cc2c1)n1cc2c(cc1=O)-c1cc(Cl)ccc1CC(CF)NC2=O (stereo not shown) [Example 31, 2-[11-Chloro-7-(fluoromethyl)-2,5-dioxo-5,6,7,8-tetrahydropyrido[3,4-e][3]benzazocin-3(2H)-yl]-4-methoxy-N-(2-methyl-2H-indazol-5-yl)butanamide] | 42 nM | 2.8 nM |
| COCCC(C(=O)Nc1ccc(C(=O)O)cc1)n1cc2c(cc1=O)-c1cc(Cl)ccc1CC(CF)NC2=O (stereo not shown) [Example 33, 4-({2-[11-Chloro-7-(fluoromethyl)-2,5-dioxo-5,6,7,8-tetrahydropyrido[3,4-e][3]benzazocin-3(2H)-yl]-4-methoxybutanoyl}amino)benzoic acid] | 97 nM | 1.2 nM |

Other lines, results leading:

| IC50 (human plasma kallikrein) | IC50 (human factor XIa) | Structure (SMILES) |
| --- | --- | --- |
| 250 nM | 18 nM | CO[C@H]1CC[C@H](CC(C(=O)Nc2ccc3[nH]c(=O)[nH]c3c2)n2cc3c(cc2=O)-c2cc(Cl)ccc2CC2(CC2)NC3=O)CC1 (stereo partly drawn) [Example 27, 2-(11′-Chloro-2′,5′-dioxo-2′,5′,6′,8′-tetrahydro-3′H-spiro[cyclopropane-1,7′-pyrido[3,4-e][3]benzazocine]-3′-yl)-3-(trans-4-methoxycyclohexyl)-N-(2-oxo-2,3-dihydro-1H-benzimidazol-5-yl)propanamide] |
| 55 nM | 1.8 nM | O=C(O)c1ccc(NC(=O)C(Cc2ccccc2)n2cc3c(cc2=O)-c2cc(Cl)ccc2CC2(CC2)NC3=O)cc1 (stereo not shown) [Example 28, 4-{[2-(11′-Chloro-2′,5′-dioxo-2′,5′,6′,8′-tetrahydro-3′H-spiro[cyclopropane-1,7′-pyrido[3,4-e][3]benzazocine]-3′-yl)-3-phenylpropanoyl]amino}benzoic acid] |
| 42 nM | 4.5 nM | O=C1NC2(CC2)Cc2ccc(Cl)cc2-c2cc(=O)n(C(Cc3ccccc3)C(=O)Nc3ccc4[nH]c(=O)[nH]c4c3)cc21 (stereo not shown) [Example 29, 2-(11′-Chloro-2′,5′-dioxo-2′,5′,6′,8′-tetrahydro-3′H-spiro[cyclopropane-1,7′-pyrido[3,4-e][3]benzazocine]-3′-yl)-N-(2-oxo-2,3-dihydro-1H-benzimidazol-5-yl)-3-phenylpropanamide] |
| 45 nM | 4.5 nM | Cn1cc2cc(NC(=O)C(Cc3ccccc3)n3cc4c(cc3=O)-c3cc(Cl)ccc3CC3(CC3)NC4=O)ccc2n1 (stereo not shown) [Example 30, 2-(11′-Chloro-2′,5′-dioxo-2′,5′,6′,8′-tetrahydro-3′H-spiro[cyclopropane-1,7′-pyrido[3,4-e][3]benzazocine]-3′-yl)-N-(2-methyl-2H-indazol-5-yl)-3-phenylpropanamide] |
